The values below come from US20110230476A1, “PI3 KINASE INHIBITORS AND USES THEREOF” (AVILA THERAPEUTICS, INC., priority 2009, published 2011).

pIC50: −log10 of the molar value.

T1 sequence (P42336 whole entry): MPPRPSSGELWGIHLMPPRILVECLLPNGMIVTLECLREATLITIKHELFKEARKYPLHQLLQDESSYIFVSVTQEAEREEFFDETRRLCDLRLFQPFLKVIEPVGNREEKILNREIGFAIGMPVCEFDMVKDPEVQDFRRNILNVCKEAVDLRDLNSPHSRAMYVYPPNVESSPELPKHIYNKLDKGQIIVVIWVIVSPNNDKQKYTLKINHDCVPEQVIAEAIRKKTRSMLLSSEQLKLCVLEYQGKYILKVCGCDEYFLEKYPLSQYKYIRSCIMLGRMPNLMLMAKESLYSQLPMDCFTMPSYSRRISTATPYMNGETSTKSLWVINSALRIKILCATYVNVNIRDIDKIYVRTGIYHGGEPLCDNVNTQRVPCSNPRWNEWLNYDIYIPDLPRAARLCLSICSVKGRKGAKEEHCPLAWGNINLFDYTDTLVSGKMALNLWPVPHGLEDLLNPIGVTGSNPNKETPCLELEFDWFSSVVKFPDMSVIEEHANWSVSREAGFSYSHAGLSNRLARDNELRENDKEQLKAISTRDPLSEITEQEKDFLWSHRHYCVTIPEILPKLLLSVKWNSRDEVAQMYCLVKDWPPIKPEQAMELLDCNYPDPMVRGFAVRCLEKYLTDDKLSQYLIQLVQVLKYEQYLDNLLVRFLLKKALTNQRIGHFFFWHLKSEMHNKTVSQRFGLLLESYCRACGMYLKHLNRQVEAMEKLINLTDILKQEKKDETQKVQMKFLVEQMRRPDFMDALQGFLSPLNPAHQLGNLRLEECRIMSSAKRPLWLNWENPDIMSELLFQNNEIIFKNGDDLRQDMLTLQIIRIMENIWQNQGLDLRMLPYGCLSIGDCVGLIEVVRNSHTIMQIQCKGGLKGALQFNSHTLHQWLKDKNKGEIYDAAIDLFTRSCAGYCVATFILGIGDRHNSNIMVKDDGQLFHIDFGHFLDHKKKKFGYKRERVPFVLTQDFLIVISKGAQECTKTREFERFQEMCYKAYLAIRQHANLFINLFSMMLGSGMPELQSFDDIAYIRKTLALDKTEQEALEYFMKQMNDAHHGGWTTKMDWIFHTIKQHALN
T1 sequence (P27986 whole entry partner): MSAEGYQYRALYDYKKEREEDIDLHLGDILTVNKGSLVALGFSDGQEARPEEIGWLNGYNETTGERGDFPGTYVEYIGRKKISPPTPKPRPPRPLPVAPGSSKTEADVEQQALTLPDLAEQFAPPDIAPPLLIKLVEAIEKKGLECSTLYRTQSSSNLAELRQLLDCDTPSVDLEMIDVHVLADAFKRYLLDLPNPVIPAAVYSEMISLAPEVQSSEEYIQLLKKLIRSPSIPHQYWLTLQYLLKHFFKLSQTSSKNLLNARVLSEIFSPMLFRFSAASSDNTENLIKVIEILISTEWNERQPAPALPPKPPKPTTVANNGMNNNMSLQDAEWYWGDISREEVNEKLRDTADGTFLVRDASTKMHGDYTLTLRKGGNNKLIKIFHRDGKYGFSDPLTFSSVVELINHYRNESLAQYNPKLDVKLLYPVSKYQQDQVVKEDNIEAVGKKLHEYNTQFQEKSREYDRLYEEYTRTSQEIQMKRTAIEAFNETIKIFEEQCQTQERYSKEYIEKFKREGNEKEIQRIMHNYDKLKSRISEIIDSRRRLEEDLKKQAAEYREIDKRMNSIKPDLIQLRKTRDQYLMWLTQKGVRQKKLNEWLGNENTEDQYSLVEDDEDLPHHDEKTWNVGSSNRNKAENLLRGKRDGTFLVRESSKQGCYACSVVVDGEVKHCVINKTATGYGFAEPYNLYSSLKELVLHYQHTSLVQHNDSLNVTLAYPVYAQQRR

This assay concerns the target T1, PI3Kα (p110α/p85α) (Homo sapiens, UniProt P42336).
T1 construct: purchased BPS Bioscience (San Diego, Calif.) or Millipore (Billerica, Mass.)
Description: HTRF assay, potency against active PI3Kα. It is filed as biochemical. As to conditions: HTRF; [ATP]=50 μM, [di-C8-PIP2]=10 μM; 30 min pre-incubation; read-out: PI3Kα Inhibition. Here is the method: Homogeneous Time Resolved Fluorescence (HTRF) Assay Protocol for Potency Assessment Against the Active Forms of PI3Kα, PI3Kβ, and PI3Kγ
The mechanics of the assay platform are best described by the vendor (Millipore, Billerica, Mass.) on their website at the following URL: www.millipore.com/coa/tech1/74jt4z.
Briefly, Stop solution (Stop A, #33-007 and Stop B, #33-009; 3:1 ratio) and Detection Mix (from DMC, #33-015 with DMA, #33-011 and DMB, #33-013; 18:1:1 ratio) were prepared as recommended by the manufacturer about 2 hrs prior to use. […] Lipid kinase reactions were started with the addition of 5 μL of ATP solution, mixed for 15 sec on a rotary plate shaker and incubated for 30-60 minutes at 25° C. Next, reactions were stopped with a 5 μL addition of Stop solution immediately followed by a 5 μL volume of Detection Mix. […] At the conclusion of each assay, the HTRF ratio from fluorescence emission values for each well was calculated and % Inhibition determined from averaged controls wells (+/−PI3K enzyme). % Inhibition values for each compound were then plotted against inhibitor concentration to estimate IC50 from log [Inhibitor] vs Response, Variable Slope model in GraphPad Prism from GraphPad Software (San Diego, Calif.).
In the case of `C=CC(=O)NCCC(=O)N1CCC[C@@H](n2nc(-c3cc4cc(O)ccc4[nH]3)c3c(N)ncnc32)C1` [XI-4, (R)—N-(3-(3-(4-amino-3-(5-hydroxy-1H-indol-2-yl)-1H-pyrazolo[3,4-d]pyrimidin-1-yl)piperidin-1-yl)-3-oxopropyl)acrylamide], the pIC50 is less than 6.00. Next, `C/C=C/C(=O)CCC(=O)NCc1ccc(OC)c(-n2c(CSc3ncnc4[nH]cnc34)nc3cccc(Cl)c3c2=O)c1` [I-6, (E)-N-(3-(2-((9H-purin-6-ylthio)methyl)-5-chloro-4-oxoquinazolin-3(4H)-yl)-4-methoxybenzyl)-4-oxohept-5-enamide]: less than 6.00; `CC(C)=CC(=O)c1ccc(CCNC(=O)c2cc(-c3cnc(N)nc3)nc(N3CCOCC3)c2)cc1` [XII-10, 2-(2-aminopyrimidin-5-yl)-N-(4-(3-methylbut-2-enoyl)phenethyl)-6-morpholinoisonicotinamide]: 6.00 to 7.00; `C/C=C/C(=O)CCC(=O)N1CCN(Cc2cc3nc(-c4ccnc5[nH]ccc45)nc(N4CCOCC4)c3s2)CC1` [II-a-114, (E)-1-(4-((4-morpholino-2-(1H-pyrrolo[2,3-b]pyridin-4-yl)thieno[3,2-d]pyrimidin-6-yl)methyl)piperazin-1-yl)hept-5-ene-1,4-dione]: 6.00 to 7.00. On to `C=CC(=O)Nc1ccc(CNC(=O)c2cc(-c3cccc4[nH]ncc34)nc(N3CCOCC3)c2)cc1` [XII-14, N-(4-acrylamidobenzyl)-2-(1H-indazol-4-yl)-6-morpholinoisonicotinamide], for which the pIC50 is less than 6.00. Turning to `O=C(C=C1COC1)CCC(=O)N1CCN(Cc2cc3nc(-c4cccc5[nH]ncc45)nc(N4CCOCC4)c3s2)CC1` [II-a-113, 1-(4-((2-(1H-indazol-4-yl)-4-morpholinothieno[3,2-d]pyrimidin-6-yl)methyl)piperazin-1-yl)-5-(oxetan-3-ylidene)pentane-1,4-dione], the pIC50 is less than 6.00. The figure for `C=CC(=O)NCCOCCOc1ccc2c(c1OC)N=C(NC(=O)c1cccnc1)N1CCN=C21` [IX-1, N-(8-(2-(2-acrylamidoethoxy)ethoxy)-7-methoxy-2,3-dihydroimidazo[1,2-c]quinazolin-5-yl)nicotinamide] is 7.00 to 8.00; for `CC(C)(C)/C=C/C(=O)CCC(=O)N1CCN(Cc2cc3nc(-c4cccc5[nH]ncc45)nc(N4CCOCC4)c3s2)CC1` [II-a-131, (E)-1-(4-((2-(1H-indazol-4-yl)-4-morpholinothieno[3,2-d]pyrimidin-6-yl)methyl)piperazin-1-yl)-7,7-dimethyloct-5-ene-1,4-dione] it is 6.00 to 7.00. The figure for `CC(C)=CC(=O)C(=O)N1CCN(C2CCN(c3cc(-c4cnc(N)nc4)nc(N4CCOCC4)c3)CC2)CC1` [XII-35, 1-(4-(1-(2-(2-aminopyrimidin-5-yl)-6-morpholinopyridin-4-yl)piperidin-4-yl)piperazin-1-yl)-4-methylpent-3-ene-1,2-dione] is 6.00 to 7.00; for `C=CC(=O)N1CCN(c2ccc(-c3cc(-c4cnc(N)nc4)nc(N4CCOCC4)c3)cn2)CC1` [XII-28, 1-(4-(2′-(2-aminopyrimidin-5-yl)-6′-morpholino-3,4′-bipyridin-6-yl)piperazin-1-yl)prop-2-en-1-one] it is 6.00 to 7.00; for `O=C(/C=C/c1ccccc1)CCC(=O)N1CC=C(c2cc3nc(-c4cccc5[nH]ncc45)nc(N4CCOCC4)c3s2)CC1` [II-a-135, (E)-1-(4-(2-(1H-indazol-4-yl)-4-morpholinothieno[3,2-d]pyrimidin-6-yl)-5,6-dihydropyridin-1(2H)-yl)-6-phenylhex-5-ene-1,4-dione] it is 6.00 to 7.00. On to `C=CC(=O)NCc1ccc(-c2cc3nc(-c4cccc(O)c4)nc(N4CCOCC4)c3s2)cc1` [II-a-65, N-(4-(2-(3-hydroxyphenyl)-4-morpholinothieno[3,2-d]pyrimidin-6-yl)benzyl)acrylamide], for which the pIC50 is more than 8.00.

For `C/C=C/C(=O)CCCC(=O)NCC(=O)Nc1ccc2c(c1)N(c1nc3c(s1)C(=O)NC(C)(C)C3)CCO2` [VI-25], the pIC50 was less than 6.00. Next, `C/C=C/C(=O)CCC(=O)N1CCN(c2ccc(-c3ccnc4ccc(/C=C5\SC(=O)NC5=O)cc34)cc2)CC1` [V-15, (Z)-5-((4-(4-(4-((E)-4-oxohept-5-enoyl)piperazin-1-yl)phenyl)quinolin-6-yl)methylene)thiazolidine-2,4-dione]: 7.00 to 8.00; `C=CC(=O)N1CCN(Cc2cc3nc(-c4cccc5[nH]ncc45)nc(N4CCOCC4)c3s2)CC1` [II-a-2, 1-(4-((2-(1H-indazol-4-yl)-4-morpholinothieno[3,2-d]pyrimidin-6-yl)methyl)piperazin-1-yl)prop-2-en-1-one]: 7.00 to 8.00; `C=CC(=O)Nc1ccc(CNC(=O)c2cc(-c3cnc(N)nc3C)nc(N3CCOCC3)c2)cc1` [XII-17, N-(4-acrylamidobenzyl)-2-(2-amino-4-methylpyrimidin-5-yl)-6-morpholinoisonicotinamide]: less than 6.00. Next, `CC(C)=CC(=O)CCCC(=O)NCC#Cc1cc(-c2cnc(N)nc2)nc(N2CCOCC2)c1` [XII-20, N-(3-(2-(2-aminopyrimidin-5-yl)-6-morpholinopyridin-4-yl)prop-2-ynyl)-7-methyl-5-oxooct-6-enamide]: 6.00 to 7.00. Next, `C=CC(=O)NC1CCN(c2ccc(-c3cc4nc(-c5cccc(O)c5)nc(N5CCOCC5)c4s3)cc2)CC1` [II-a-81, N-(1-(4-(2-(3-hydroxyphenyl)-4-morpholinothieno[3,2-d]pyrimidin-6-yl)phenyl)piperidin-4-yl)acrylamide]: 7.00 to 8.00; `Cn1ccnc1/C=C/C(=O)CCC(=O)N1CCN(Cc2cc3nc(-c4cccc5[nH]ncc45)nc(N4CCOCC4)c3s2)CC1` [II-a-129, (E)-1-(4-((2-(1H-indazol-4-yl)-4-morpholinothieno[3,2-d]pyrimidin-6-yl)methyl)piperazin-1-yl)-6-(1-methyl-1H-imidazol-2-yl)hex-5-ene-1,4-dione]: 6.00 to 7.00; `C=C(C)C(=O)CCC(=O)N1CCC(C#Cc2cc3nc(-c4cccc(O)c4)nc(N4CCOCC4)c3s2)CC1` [II-a-103, 1-(4-((2-(3-hydroxyphenyl)-4-morpholinothieno[3,2-d]pyrimidin-6-yl)ethynyl)piperidin-1-yl)-5-methylhex-5-ene-1,4-dione]: more than 8.00.

Regarding `O=C(/C=C/c1ncc[nH]1)CCC(=O)N1CCN(Cc2cc3nc(-c4cccc5[nH]ncc45)nc(N4CCOCC4)c3s2)CC1` [II-a-125, (E)-1-(4-((2-(1H-indazol-4-yl)-4-morpholinothieno[3,2-d]pyrimidin-6-yl)methyl)piperazin-1-yl)-6-(1H-imidazol-2-yl)hex-5-ene-1,4-dione], the pIC50 is 6.00 to 7.00.

Consider `COc1c(OCCNC(=O)CCCC(=O)/C=C/c2ccccc2)ccc2c1N=C(NC(=O)c1cccnc1)N1CCN=C21` [IX-4, (E)-N-(7-methoxy-8-(2-(5-oxo-7-phenylhept-6-enamido)ethoxy)-2,3-dihydroimidazo[1,2-c]quinazolin-5-yl)nicotinamide], for which the pIC50 is 6.00 to 7.00. Take `CCC/C=C/C(=O)CCC(=O)N1CCN(Cc2cc3nc(-c4cccc5[nH]ncc45)nc(N4CCOCC4)c3s2)CC1` [II-a-63, (E)-1-(4-((2-(1H-indazol-4-yl)-4-morpholinothieno[3,2-d]pyrimidin-6-yl)methyl)piperazin-1-yl)non-5-ene-1,4-dione]: the pIC50 was more than 8.00. Turning to `C/C=C/C(=O)CCC(=O)N1CCc2cc(-c3cc4nc(-c5cccc(O)c5)nc(N5CCOCC5)c4s3)ccc2C1` [II-a-108, (E)-1-(6-(2-(3-hydroxyphenyl)-4-morpholinothieno[3,2-d]pyrimidin-6-yl)-3,4-dihydroisoquinolin-2(1H)-yl)hept-5-ene-1,4-dione], the pIC50 was more than 8.00. The figure for `CC(C)=CC(=O)C(=O)N1CCN(c2ccc(-c3cc(-c4cnc(N)nc4)nc(N4CCOCC4)c3)cc2)CC1` [XII-24, 1-(4-(4-(2-(2-aminopyrimidin-5-yl)-6-morpholinopyridin-4-yl)phenyl)piperazin-1-yl)-4-methylpent-3-ene-1,2-dione] is 7.00 to 8.00.

As for `C=CC(=O)N1CCC(C#Cc2cc3nc(-c4cccc(O)c4)nc(N4CCOCC4)c3s2)CC1` [II-a-70, 1-(4-((2-(3-hydroxyphenyl)-4-morpholinothieno[3,2-d]pyrimidin-6-yl)ethynyl)piperidin-1-yl)prop-2-en-1-one], the pIC50 was 7.00 to 8.00. Next, `CC(C)=CC(=O)CCC(=O)N1CCC(C#Cc2cc(-c3cnc(N)nc3)nc(N3CCOCC3)c2)CC1` [XII-31, 1-(4-((2-(2-aminopyrimidin-5-yl)-6-morpholinopyridin-4-yl)ethynyl)piperidin-1-yl)-6-methylhept-5-ene-1,4-dione]: 6.00 to 7.00; `C=CC(=O)NCC12CCC(c3cc4nc(-c5cccc6[nH]ncc56)nc(N5CCOCC5)c4s3)(CC1)OC2` [II-a-153, N-((1-(2-(1H-indazol-4-yl)-4-morpholinothieno[3,2-d]pyrimidin-6-yl)-2-oxabicyclo[2.2.2]octan-4-yl)methyl)acrylamide]: 6.00 to 7.00; `CC(C)=CC(=O)CCc1ccc(C#Cc2cc(-c3cccc4[nH]ncc34)nc(N3CCOCC3)c2)cc1` [XII-19, 1-(4-((2-(1H-indazol-4-yl)-6-morpholinopyridin-4-yl)ethynyl)phenyl)-5-methylhex-4-en-3-one]: less than 6.00.
